According to paper PMC4949196, “Binding interaction of a gamma-aminobutyric acid derivative with serum albumin: an insight by fluorescence and molecular modeling analysis” (SpringerPlus, 2016):

Columns and labels:
[1] = target: T1, human serum albumin (HSA) (Homo sapiens, UniProt P02768); experiment: intrinsic tryptophan fluorescence quenching titration, Langmuir isotherm fit, room temperature, pH […]; format: binding
T1 construct: gene ALB

[2] = target: T2, bovine serum albumin (BSA) (Bos taurus, UniProt P02769); experiment: as above; format: binding
T2 construct: gene ALB
T2 sequence (P02769 25-607): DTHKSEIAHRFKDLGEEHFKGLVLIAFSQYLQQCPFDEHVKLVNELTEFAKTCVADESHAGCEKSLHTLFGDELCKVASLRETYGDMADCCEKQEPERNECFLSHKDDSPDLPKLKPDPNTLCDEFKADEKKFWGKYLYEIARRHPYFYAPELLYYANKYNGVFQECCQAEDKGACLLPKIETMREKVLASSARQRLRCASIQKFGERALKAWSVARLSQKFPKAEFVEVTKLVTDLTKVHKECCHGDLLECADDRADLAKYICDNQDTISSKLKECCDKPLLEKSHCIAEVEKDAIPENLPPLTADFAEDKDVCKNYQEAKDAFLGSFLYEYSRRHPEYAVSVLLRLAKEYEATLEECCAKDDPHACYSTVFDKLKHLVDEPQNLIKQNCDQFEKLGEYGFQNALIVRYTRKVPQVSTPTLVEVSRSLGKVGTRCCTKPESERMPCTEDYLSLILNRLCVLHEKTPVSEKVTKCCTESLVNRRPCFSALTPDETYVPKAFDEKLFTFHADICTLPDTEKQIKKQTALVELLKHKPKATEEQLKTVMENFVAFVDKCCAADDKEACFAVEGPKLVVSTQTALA

T1 sequence (P02768 25-609): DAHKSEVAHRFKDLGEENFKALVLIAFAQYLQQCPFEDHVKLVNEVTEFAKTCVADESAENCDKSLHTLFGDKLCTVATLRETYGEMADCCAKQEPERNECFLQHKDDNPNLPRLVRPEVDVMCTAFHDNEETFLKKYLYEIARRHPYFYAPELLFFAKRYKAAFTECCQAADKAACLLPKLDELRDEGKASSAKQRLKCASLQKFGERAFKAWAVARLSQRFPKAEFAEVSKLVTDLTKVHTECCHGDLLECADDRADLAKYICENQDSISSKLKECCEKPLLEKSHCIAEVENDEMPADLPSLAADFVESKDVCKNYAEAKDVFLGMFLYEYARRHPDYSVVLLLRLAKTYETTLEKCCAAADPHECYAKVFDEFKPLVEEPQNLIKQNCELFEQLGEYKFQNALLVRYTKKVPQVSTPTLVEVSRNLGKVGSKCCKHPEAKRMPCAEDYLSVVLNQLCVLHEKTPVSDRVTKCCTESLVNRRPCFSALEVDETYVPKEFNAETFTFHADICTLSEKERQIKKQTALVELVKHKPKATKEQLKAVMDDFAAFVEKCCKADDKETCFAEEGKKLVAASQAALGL

COC(=O)CCCNC(=O)c1ccc(N(CC(=O)OC(C)(C)C)c2ccc(OC)cc2)cc1 [compound 5, methyl 4-(4-((2-(tert-butoxy)-2-oxoethyl)(4-methoxyphenyl)amino)benzamido)butanoate]
Kd [1]: 2.75 µM
Kd [2]: 3.85 µM
